Assay results: patent US9226924B2, “Methods of treating or preventing neuropathic pain” (Toray Industries, Inc., priority 2010, dated 2016)

Legend:
[1] = system: mouse models of neuropathic pain (Seltzer's method, sciatic nerve ligation); test: von Frey test in mouse Seltzer model of neuropathic pain; type: in vivo; details: oral
Method: 7 to 8 male ICR mice of 5 weeks old were used as one experimental group for evaluation. Mouse models of neuropathic pain were prepared according to Seltzer's method (Seltzer et al., Pain, 1990, vol. 43, p. 205; Malmberg et al., Pain, 1998, vol. 76, p. 215). That is, the sciatic nerve at the femoral region of the right hindlimb of each mouse was exposed under anesthesia, and the sciatic nerve was triply ligated tightly with silk suture of 8-0 (NATSUME SEISAKUSHO) under microscope so that only half thickness of the nerve was trapped in the ligature.
Seven days after the above-described sciatic nerve ligation, using 0.5% methylcellulose as a vehicle, mice of each group received administration of vehicle, administration of a suspension of pregabalin (3 mg/kg) alone, administration of a suspension of Compound 3 (0.3 mg/kg) alone, or administration (combined administration) of a mixed suspension of pregabalin and Compound 3 (3 mg/kg and 0.3 mg/kg, respectively).
Evaluation of neuropathic pain (hereinafter “von Frey test”) was carried out as follows. Mouse models of neuropathic pain were conditioned for at least 1 hour in an acryl cage for measurement (NATSUME SEISAKUSHO) placed on a wire net. Thereafter, using a filament (North Coast Medical. Inc.) which exerted a pressure of 0.16 g, the mice were subjected to mechanical tactile stimulus by applying the filament to the plantar surface of both hindpaws 3 times, each for 3 seconds, with an interval of 3 seconds.
Seven days after sciatic nerve ligation, a von Frey test was carried out before administration of the test compound, 1 hour after administration, 2 hours after administration, and 3 hours after administration. Change in the total scores from before to after administration of the test compound (hereinafter “ΔvF test score”) was calculated by subtracting the total score obtained at each time point after administration of the test compound from the total score obtained before administration of the test compound, which was used as an indicator of analgesic effect.
That is, individual ΔvF test scores of the mice in the group treated with pregabalin alone and the mice in the group treated with Compound 3 alone were sorted in ascending order, respectively, and ΔvF test scores of the two groups at the same rank were added, thereby obtaining a theoretical total value.
The symbol # in the figures indicates a significant difference (###p<0.001) from the group treated with vehicle. […] The symbol * in the figures indicates a significant difference (*p<0.05, **p<0.01) from the theoretical total value.
In the same manner as in Example 1, effects of oral administration of 1, 3, 10 and 30 mg/kg pregabalin alone were evaluated 1 hour after administration in mouse models of neuropathic pain.
(§1) The symbol * in the figure indicates a significant difference (*p<0.025) from the group treated with vehicle.

[2] = system: male ddY mice; test: mouse wheel running test (motor inhibitory effect)
Method: 8 male ddY mice of 5 weeks old were used as one experimental group for evaluation. The test compound, grouping of mice, vehicle used and administration method were the same as in Example 1.
Mice were placed in a running wheel apparatus (NATSUME SEISAKUSHO) 0.5 hour after administration of the test compound, and the number of revolutions of the running wheel was counted for a period of 1 hour immediately thereafter to evaluate a motor inhibitory effect.
In the same manner as in Example 2, motor inhibitory effects of oral administration of 30 and 100 mg/kg pregabalin were evaluated.
as §1

Row | SMILES | analgesic effect (ΔvF test score) ([1]; 0.3 mg/kg Compound 3 alone, 1 hour, 2 hours and 3 hours after administration, male ICR mice) | motor inhibitory effect (number of revolutions of running wheel) ([2]; 0.3 mg/kg Compound 3 alone, oral, 0.5 to 1.5 hours after administration) | analgesic effect (ΔvF test score) ([1]; 1 mg/kg pregabalin alone, 1 hour after administration (Comparative Example 1)) | analgesic effect (ΔvF test score) ([1]; 3 mg/kg pregabalin alone, 1 hour after administration (Comparative Example 1)) | analgesic effect (ΔvF test score) ([1]; 3 mg/kg pregabalin alone, 1 hour, 2 hours and 3 hours after administration, male ICR mice) | analgesic effect (ΔvF test score) ([1]; 10 mg/kg pregabalin alone, 1 hour after administration (Comparative Example 1), *p<0.025 vs vehicle) | analgesic effect relative to combined administration of 3 mg/kg pregabalin and 0.3 mg/kg Compound 3 ([1]; 30 mg/kg pregabalin alone, 1 hour after administration) | analgesic effect (ΔvF test score) ([1]; 30 mg/kg pregabalin alone, 1 hour after administration (Comparative Example 1), *p<0.025 vs vehicle) | motor inhibitory effect (number of revolutions of running wheel) ([2]; 3 mg/kg pregabalin alone, oral, 0.5 to 1.5 hours after administration) | motor inhibitory effect (number of revolutions of running wheel) ([2]; 30 mg/kg pregabalin alone, oral (Comparative Example 2), *p<0.025 vs vehicle) | motor inhibitory effect (number of revolutions of running wheel) ([2]; 100 mg/kg pregabalin alone, oral (Comparative Example 2), *p<0.025 vs vehicle)
1 | COc1ccc(-n2nc(C3(O)CCC(O)CC3)cc2-c2ccc(C)cc2)cc1 (stereo not drawn) [Compound 3, 1-(1-(4-methoxyphenyl)-5-(p-tolyl)-1H-pyrazol-3-yl)cyclohex-an-cis-1,4-diol] | an analgesic effect was not observed | No statistically-significant motor inhibitory effect was found | – | – | – | – | – | – | – | – | –
2 | CC(C)C[C@H](CN)CC(=O)O [Pregabalin, S-(+)-4-amino-3-(2-methylpropyl) butanoic acid] | – | – | No analgesic effect was observed | No analgesic effect was observed | an analgesic effect was not observed | a statistically-significant analgesic effect was observed | about the same level | a statistically-significant analgesic effect was observed | No statistically-significant motor inhibitory effect was found | statistically significantly reduced the number of revolutions | statistically significantly reduced the number of revolutions
